Test results from ChEMBL document CHEMBL3813651, “Structure-activity relationships of dibenzoylhydrazines for the inhibition of P-glycoprotein-mediated quinidine transport” (Bioorg Med Chem, 2016).

What was measured:
[1] = target: ATP-dependent translocase ABCB1 (Homo sapiens, UniProt P08183); assay: Inhibition of human P-glycoprotein transfected in pig LLC-GA5-COL150 cells assessed as quinidine transport from apical to basolateral side preincubated for 30 mins followed by quinidine addition to apical side measured after 60 mins; assay type: cell-based; parameters: log(activity): scale not given here; conditions: for log(activity): human, llc-ga5-col150, 1 h
Chain of ATP-dependent translocase ABCB1 (P08183 whole entry): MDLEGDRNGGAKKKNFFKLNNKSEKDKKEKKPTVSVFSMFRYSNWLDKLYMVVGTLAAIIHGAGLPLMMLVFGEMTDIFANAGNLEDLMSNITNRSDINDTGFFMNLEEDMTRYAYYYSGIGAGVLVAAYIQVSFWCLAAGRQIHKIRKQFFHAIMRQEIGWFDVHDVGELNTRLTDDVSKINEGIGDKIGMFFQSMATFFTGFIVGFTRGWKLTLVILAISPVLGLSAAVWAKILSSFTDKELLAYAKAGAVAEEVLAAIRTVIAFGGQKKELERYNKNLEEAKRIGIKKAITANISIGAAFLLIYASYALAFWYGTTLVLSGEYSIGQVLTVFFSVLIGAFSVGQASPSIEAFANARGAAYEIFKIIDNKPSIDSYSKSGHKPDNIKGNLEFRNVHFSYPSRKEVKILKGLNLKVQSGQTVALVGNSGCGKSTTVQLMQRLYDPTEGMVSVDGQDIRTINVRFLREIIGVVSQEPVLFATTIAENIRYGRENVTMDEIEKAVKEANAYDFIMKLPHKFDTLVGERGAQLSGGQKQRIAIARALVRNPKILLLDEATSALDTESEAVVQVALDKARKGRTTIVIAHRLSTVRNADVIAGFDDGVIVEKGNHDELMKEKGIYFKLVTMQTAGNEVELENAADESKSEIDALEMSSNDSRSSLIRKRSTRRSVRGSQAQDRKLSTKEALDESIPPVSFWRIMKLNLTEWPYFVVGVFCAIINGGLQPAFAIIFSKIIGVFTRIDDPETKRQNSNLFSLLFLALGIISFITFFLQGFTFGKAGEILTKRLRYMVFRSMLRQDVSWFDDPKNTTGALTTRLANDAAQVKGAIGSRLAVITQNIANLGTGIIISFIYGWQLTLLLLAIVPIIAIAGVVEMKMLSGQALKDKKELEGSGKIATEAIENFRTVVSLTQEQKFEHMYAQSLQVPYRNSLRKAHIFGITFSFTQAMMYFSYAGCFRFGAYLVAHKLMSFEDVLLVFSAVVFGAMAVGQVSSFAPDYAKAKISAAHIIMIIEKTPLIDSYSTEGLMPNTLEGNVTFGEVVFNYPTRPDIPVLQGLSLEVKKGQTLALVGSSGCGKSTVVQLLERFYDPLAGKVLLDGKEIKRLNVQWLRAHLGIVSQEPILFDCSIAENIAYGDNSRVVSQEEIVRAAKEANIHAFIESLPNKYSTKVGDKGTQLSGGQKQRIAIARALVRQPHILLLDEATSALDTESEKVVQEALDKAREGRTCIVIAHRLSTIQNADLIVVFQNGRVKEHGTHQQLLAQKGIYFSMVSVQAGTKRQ

P-glycoprotein (ABCB1) [2] = target: T1, P-glycoprotein (ABCB1) (Homo sapiens, UniProt P08183); assay: Inhibition of human P-glycoprotein transfected in pig LLC-GA5-COL150 cells assessed as quinidine transport from apical to basolateral side at 30 uM preincubated for 30 mins followed by quinidine addition to apical side measured after 60 mins; assay type: cell-based; conditions: LLC-PK1, probe quinidine
T1 sequence (P08183 whole entry): as above

[3] = Lipophilicity , logP of the compound; assay type: physicochemical; conditions: octanol/water
P-glycoprotein (ABCB1) [4] = target: T1, P-glycoprotein (ABCB1); assay: Inhibition of human P-glycoprotein transfected in pig LLC-GA5-COL150 cells assessed as quinidine transport from apical to basolateral side at 2 uM preincubated for 30 mins followed by quinidine addition to apical side measured after 60 mins; conditions: LLC-PK1, probe quinidine

Row | log(activity) [1] | inhibition at 1 h, 30 µM (P-glycoprotein (ABCB1) [2]) | IC50 [1] | logP [3] | inhibition at 1 h, 2 µM (P-glycoprotein (ABCB1) [4]) | Compound
1 | -1.25 | 5.4% |  |  |  | CC(C)(C)N(NC(=O)c1ccccc1)C(=O)c1ccccc1Cl
2 | -0.78 | 14.2% |  | 4.31 |  | Cc1cc(C)cc(C(=O)N(NC(=O)c2ccc(Cl)cc2)C(C)(C)C)c1
3 | -1.25 | 5.3% |  |  |  | CC(=O)c1ccc(C(=O)NN(C(=O)c2ccccc2Cl)C(C)(C)C)cc1
4 | -1.36 | 4.2% |  | 2.35 |  | CC(C)(C)N(NC(=O)c1c(F)cccc1F)C(=O)c1ccccc1Cl
5 | -1.29 | 4.9% |  |  |  | CC(C)(C)N(NC(=O)c1ccc(C#N)cc1)C(=O)c1ccccc1Cl
6 | -1.1 | 7.3% |  |  |  | Cc1ccc(C(=O)NN(C(=O)c2ccccc2Cl)C(C)(C)C)cc1
7 | -0.52 | 23% |  |  |  | CCc1ccc(C(=O)NN(C(=O)c2ccccc2Cl)C(C)(C)C)cc1
8 | -0.09 | 45% |  | 3.75 |  | CC(C)(C)N(NC(=O)c1cccc(Cl)c1Cl)C(=O)c1ccccc1Cl
9 | -0.99 | 9.3% |  | 3.4 |  | Cc1cccc(C(=O)NN(C(=O)c2ccccc2Cl)C(C)(C)C)c1C
10 | -0.86 | 12.2% |  | 3.46 |  | COc1cccc(C(=O)NN(C(=O)c2ccccc2Cl)C(C)(C)C)c1C
11 | -0.44 | 26.8% | 73.6 µM | 3.4 |  | Cc1ccc(C)c(C(=O)NN(C(=O)c2ccccc2Cl)C(C)(C)C)c1
12 | -0.58 | 20.8% |  | 3.65 |  | Cc1ccc(C(=O)NN(C(=O)c2ccccc2Cl)C(C)(C)C)cc1C
13 | -0.28 | 34.2% | 58.1 µM | 3.75 |  | COc1cccc(C(=O)NN(C(=O)c2cc(C)cc(C)c2)C(C)(C)C)c1
14 | -0.35 | 30.9% |  | 3.95 |  | Cc1ccc(C(=O)NN(C(=O)c2cc(C)cc(C)c2)C(C)(C)C)cc1
15 | -1.25 | 5.3% |  |  |  | CC(C)(C)N(NC(=O)c1ccccc1Cl)C(=O)c1ccccc1Cl
16 | -0.95 | 10.1% |  | 2.91 |  | CC(C)(C)N(NC(=O)c1ccccc1Br)C(=O)c1ccccc1Cl
17 | -0.55 | 21.8% |  | 3.11 |  | CC(C)(C)N(NC(=O)c1ccccc1I)C(=O)c1ccccc1Cl
18 | -1.08 | 7.6% |  |  |  | CC(C)(C)N(NC(=O)c1cccc(F)c1)C(=O)c1ccccc1Cl
19 | -0.31 | 33% |  | 3.62 |  | CC(C)(C)N(NC(=O)c1cccc(Br)c1)C(=O)c1ccccc1Cl
20 | -0.98 | 9.5% |  | 2.48 |  | CC(C)(C)N(NC(=O)c1cccc(C#N)c1)C(=O)c1ccccc1Cl
21 | -0.89 | 11.5% |  |  |  | Cc1cccc(C(=O)NN(C(=O)c2ccccc2Cl)C(C)(C)C)c1
22 | -0.92 | 10.8% |  | 2.81 |  | COc1cccc(C(=O)NN(C(=O)c2ccccc2Cl)C(C)(C)C)c1
23 | -1.3 | 4.8% |  |  |  | CC(C)(C)N(NC(=O)c1ccc(F)cc1)C(=O)c1ccccc1Cl
24 | -0.71 | 16.2% |  |  |  | CC(C)(C)N(NC(=O)c1ccc(C(F)(F)F)cc1)C(=O)c1ccccc1Cl
25 | -1.13 | 6.9% |  | 2.67 |  | CC(C)(C)N(NC(=O)c1c(F)cccc1Cl)C(=O)c1ccccc1Cl
26 |  | 2.5% |  | 3.64 |  | Cc1cc(C)cc(C(=O)N(NC(=O)c2ccc(F)c(F)c2F)C(C)(C)C)c1

Row | log(activity) [1] | inhibition at 1 h, 30 µM (P-glycoprotein (ABCB1) [2]) | IC50 [1] | logP [3] | inhibition at 1 h, 2 µM (P-glycoprotein (ABCB1) [4]) | Compound
27 | -1.14 | 6.7% |  | 2.37 |  | COc1ccccc1C(=O)NN(C(=O)c1ccccc1Cl)C(C)(C)C
28 | -0.1 | 44.2% | 46.7 µM | 3.75 |  | CC(C)(C)N(NC(=O)c1cc(Cl)ccc1Cl)C(=O)c1ccccc1Cl
29 | 0.02 | 50.9% | 39.9 µM | 4.28 |  | CCOc1cccc(C(=O)NN(C(=O)c2cc(C)cc(C)c2)C(C)(C)C)c1
30 | 0.25 | 63.9% |  | 3.87 |  | CC(C)(C)N(NC(=O)c1cccc(I)c1)C(=O)c1ccccc1Cl
31 |  | 97.2% |  | 4.29 |  | CC(C)(C)N(NC(=O)c1cc(Cl)cc(Cl)c1)C(=O)c1ccccc1Cl
32 |  | 0.9% |  | 4.66 |  | Cc1cc(C)cc(C(=O)N(NC(=O)c2ccc(C(F)(F)F)cc2)C(C)(C)C)c1
33 | -1.21 | 5.8% |  | 3.03 |  | CC(C)(C)N(NC(=O)c1c(Cl)cccc1Cl)C(=O)c1ccccc1Cl
34 | -1.13 | 7% |  | 2.84 |  | CSc1ccccc1C(=O)NN(C(=O)c1ccccc1Cl)C(C)(C)C
35 | 0.15 | 58.4% | 15.2 µM | 4.86 |  | CCCc1ccc(C(=O)NN(C(=O)c2cc(C)cc(C)c2)C(C)(C)C)cc1
36 | 0.61 | 80.3% | 12.5 µM | 3.77 |  | CC(C)(C)N(NC(=O)c1ccccc1-c1ccccc1)C(=O)c1ccccc1Cl
37 |  | 0.5% |  | 3.84 |  | Cc1cc(C)cc(C(=O)N(NC(=O)c2cccc(O)c2C)C(C)(C)C)c1
38 | -0.54 | 22.4% |  | 3.67 |  | Cc1cc(C)cc(C(=O)NN(C(=O)c2ccccc2Cl)C(C)(C)C)c1
39 | -0.73 | 15.6% |  | 3.02 |  | CC(C)(C)N(NC(=O)c1ccccc1C(F)(F)F)C(=O)c1ccccc1Cl
40 |  | 1% |  | 3.34 |  | Cc1cc(C)cc(C(=O)N(NC(=O)c2cccc(O)c2)C(C)(C)C)c1
41 | -0.23 | 36.8% | 48.2 µM | 3.98 |  | Cc1cccc(C(=O)NN(C(=O)c2cc(C)cc(C)c2)C(C)(C)C)c1
42 | 0.07 | 54.2% |  | 4.88 |  | Cc1cc(C)cc(C(=O)N(NC(=O)c2ccc(C)c(C)c2C)C(C)(C)C)c1
43 |  | 98.9% |  | 4.25 |  | CC(C)(C)N(NC(=O)c1ccc(Cl)c(Cl)c1)C(=O)c1ccccc1Cl
44 |  | 1.9% |  | 3.71 |  | Cc1cc(C)cc(C(=O)N(NC(=O)c2cc(F)c(F)cc2F)C(C)(C)C)c1
45 | -0.3 | 33.4% | 43.8 µM | 3.7 |  | CC(C)(C)N(NC(=O)c1cccc(C(F)(F)F)c1)C(=O)c1ccccc1Cl
46 | -0.7 | 16.6% | 64.4 µM | 2.73 |  | CC(C)(C)N(NC(=O)c1cccc([N+](=O)[O-])c1)C(=O)c1ccccc1Cl
47 | -0.54 | 22.3% | 79.9 µM | 3.98 |  | Cc1cc(C)cc(C(=O)N(NC(=O)c2ccccc2C)C(C)(C)C)c1
48 | -0.16 | 40.7% |  | 3.71 |  | CC(C)(C)N(NC(=O)c1ccc(Cl)cc1Cl)C(=O)c1ccccc1Cl
49 | -0.02 | 49% |  | 4.91 |  | Cc1cc(C)cc(C(=O)N(NC(=O)c2ccc(C(C)C)cc2)C(C)(C)C)c1
50 |  | 1.7% |  | 1.99 |  | CC(C)(C)N(NC(=O)c1ccccc1[N+](=O)[O-])C(=O)c1ccccc1Cl
51 |  |  |  |  | 100% | COc1cc2c(cc1OC)CN(CCc1ccc(NC(=O)c3cccc4c(=O)c5cccc(OC)c5[nH]c34)cc1)CC2

Row | Compound | log(activity) [1] | inhibition at 1 h, 30 µM (P-glycoprotein (ABCB1) [2]) | IC50 [1] | logP [3] | inhibition at 1 h, 2 µM (P-glycoprotein (ABCB1) [4])
52 | Cc1cc(C)cc(C(=O)N(NC(=O)c2ccccc2)C(C)(C)C)c1 | -0.69 | 17% | 100 µM |  | 
53 | Cc1cc(C)cc(C(=O)N(NC(=O)c2cccc(C)c2C)C(C)(C)C)c1 | -0.16 | 41.1% |  | 4.43 | 
54 | CC(C)(C)N(NC(=O)c1ccccc1F)C(=O)c1ccccc1Cl | -1.21 | 5.9% |  |  | 
55 | CC(C)(C)N(NC(=O)c1cccc(Cl)c1)C(=O)c1ccccc1Cl | -0.43 | 27.3% | 45.7 µM |  | 
56 | CCCc1ccc(C(=O)NN(C(=O)c2ccccc2Cl)C(C)(C)C)cc1 | -0.02 | 48.7% |  |  | 
57 | COc1ccc(C(=O)NN(C(=O)c2ccccc2Cl)C(C)(C)C)cc1 | -1.13 | 6.9% |  |  | 
58 | COc1cccc(C(=O)NN(C(=O)c2cc(C)cc(C)c2)C(C)(C)C)c1C [METHOXYFENOZIDE] | -0.33 | 32% | 44.3 µM |  | 
59 | CCc1ccc(C(=O)NN(C(=O)c2cc(C)cc(C)c2)C(C)(C)C)cc1 [TEBUFENOZIDE] | 0.06 | 53.3% | 21.5 µM |  | 
